Experimental data as given in patent publication US20150133388A1, “ACETYLATED CRYSTALLIN POLYPEPTIDES AND MIMETICS THEREOF AS THERAPEUTIC AGENTS” (Case Western Reserve University, priority 2012, published 2015).
No end group written: not given here.

T1: citrate synthase (CS) (Sus scrofa, UniProt P00889)
T1 construct: purchased Sigma-Aldrich Chemical Co. (St. Louis, Mo.)
T1 sequence (P00889 28-464): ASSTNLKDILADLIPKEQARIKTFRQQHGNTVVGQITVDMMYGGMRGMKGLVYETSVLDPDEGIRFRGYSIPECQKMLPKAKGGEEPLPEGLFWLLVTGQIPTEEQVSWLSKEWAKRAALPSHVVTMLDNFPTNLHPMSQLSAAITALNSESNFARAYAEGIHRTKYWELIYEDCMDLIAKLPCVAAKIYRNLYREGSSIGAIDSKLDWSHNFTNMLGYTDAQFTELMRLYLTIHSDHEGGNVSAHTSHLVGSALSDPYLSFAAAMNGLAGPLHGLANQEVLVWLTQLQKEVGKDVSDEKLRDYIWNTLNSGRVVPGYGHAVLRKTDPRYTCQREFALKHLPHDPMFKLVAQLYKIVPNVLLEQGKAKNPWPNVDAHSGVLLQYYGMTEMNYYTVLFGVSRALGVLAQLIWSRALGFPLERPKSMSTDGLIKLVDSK


Columns and labels:
[1] = tested on: lens protein aggregation; assay: Histology (H&E) of lens protein aggregation in selenite cataract; type: in vivo, rat; conditions: multiple injections 10 μg
Procedure: (§1) Neonatal Sprague-Dawley rat pups (12 days old) were used for these experiments. The pups in the experimental groups received a single subcutaneous injection of sodium selenite (4 mg/Kg body weight) on day 12. Peptides diluted from a stock in sterile water (dissolved by adding 2 μl of 10 N NaOH to a 1.0 ml stock) were injected intraperitoneally (at 2.5, 5, or 10 μg/animal) 6 h prior to selenite injection (single injection). When multiple injections were performed, one pre-selenite injection was administered, as above, followed by four additional injections on four consecutive days after the sodium selenite injection. One group served as the control (no treatment) and another as the selenite control (no peptide injection). The lenses were examined on day 17 (when the pups had opened their eyes) using a slit lamp microscope (after dilating the pupil through topical application of tropicamide) and photographed. For hematoxylin and eosin (H & E) and TUNEL staining, eyes were fixed immediately after enucleation in a 10% buffered formalin solution overnight.

[2] = tested on: lens epithelial cells; assay: Lens epithelial cell apoptosis in selenite cataract (in situ TUNEL); type: in vivo, rat; conditions: multiple 10 μg injections
Procedure: as §1

[3] = tested on: caspase-9; assay: Caspase-9 activity in thermally stressed CHO cells; type: cell-based, Chinese hamster; conditions: 4 μg/ml
Procedure: (§2) Cells were lysed in cell lysis buffer (Cell signaling), and lenses were homogenized in 50 mM Tris-buffered saline. Both buffers contained a protease inhibitor cocktail (1:100 dilution). An equal volume of a fluorogenic substrate solution[2× reaction buffer: 10 mM DTT and 50 μM Ac-DEVD-AFC (for caspase-3) or Ac-LEHDAFC (for caspase-9)] was added to each lysate. The lysates were then incubated for 2 h at 37° C. in the dark. The samples were analyzed with a […] spectrofluorometer (HORIBA Scientific, Edison, N.J.) at excitation/emission wavelengths 400/505 nm.

[4] = tested on: caspase-3; assay: Caspase-3 activity in thermally stressed CHO cells; type: cell-based, Chinese hamster; conditions: 4 μg/ml
Procedure: as §2

[5] = tested on: selenite-induced cataracts; assay: Selenite-induced cataract in rat pups (slit lamp); type: in vivo
Procedure: as §1

[6] = tested on: Human lens epithelial cells (HLE); assay: Hyperthermia-induced apoptosis in HLE cells (Hoechst stain); type: cell-based; conditions: 43° C. 1 h; for rate of apoptosis after peptide pretreatment: 4 μg/ml in BP 4 h, without peptide nearly 40%
Procedure: (§3) Human lens epithelial cells (HLE) were isolated from the lens of a donor and cultured in DMEM supplemented with 10% FBS as previously described for mouse lens epithelial cells. Cells between passages 5 and 6 were used for the experiments. Chinese hamster ovary (CHO) cells were cultured in Ham's F12 medium. The α-crystallin peptides were mixed with a cationic lipid, BIOPORTER (BP), according to the manufacturer's instructions (Polyplus transfection reagent, Illkirch, France). When the cultures reached 70-80% confluence, the cells were treated with BP either alone or with the peptides in serumfree medium and incubated for 4 h at 37° C. in a humidified 5% CO2 atmosphere. The cells were then washed with PBS and incubated at 43° C. for 1 h (thermal stress), followed by incubation at 37° C. for 16 h for recovery. The percentage of apoptotic cells was determined by staining the cells with Hoechst. Cells incubated at 37° C. without thermal stress were used as controls.

[7] = tested on: CHO cells; assay: Hyperthermia-induced apoptosis in CHO cells (Hoechst stain); type: cell-based, Chinese hamster; conditions: for inhibition of apoptosis: untreated rate ~28%
Procedure: as §3

[8] = tested on: insulin (IN); assay: Chaperone assay, client protein insulin; type: biochemical
Procedure: (§4) Chaperone assays were performed as previously described. The ratios of the peptides: client proteins (w/w) were as follows: citrate synthase, 1:2.5; insulin, 1:10; βL-crystallin, 1:1.5; and γ-crystallin, 1:1. The scrambled αA-crystallin peptide was tested in certain assays at peptide: client protein ratios as follows: citrate synthase, 1:1.25, insulin, 1:5 to determine peptide specificity.

[9] = tested on: γ-crystallin (GC); assay: Chaperone assay, client protein γ-crystallin; type: biochemical; conditions: peptide:γ-crystallin 1:1 (w/w)
Procedure: as §4

[10] = target: T1, citrate synthase (CS); assay: Chaperone assay, client protein citrate synthase; type: biochemical
Procedure: as §4

[11] = tested on: βL-crystallin (BLC); assay: Chaperone assay, client protein βL-crystallin; type: biochemical; conditions: peptide:βL-crystallin 1:1.5 (w/w)
Procedure: as §4

[12] = tested on: lens epithelial cells; assay: Calcimycin-induced apoptosis in organ-cultured mouse lenses (TUNEL); type: cell-based; conditions: 5 μM calcimycin
Procedure: The animal experiments conformed to the ARVO Statement for the Use of Animals in Ophthalmic and Vision Research and were approved by the CWRU's Animal Care and Use Committee. Lenses were dissected from the eyes of ˜3-month-old C57B1/6 mice and maintained in artificial aqueous humor (AAH) (113 mM NaCl, 4.5 mM KCl, 1 mM MgCl2, 1.5 mM CaCl2, 6 mM D-glucose, 10 mM HEPES, 20 mM NaHCO3, and 1:1,000 penicillin/streptomycin, pH 7.3). Lenses that developed opacification within 24 h were discarded. Native and acetyl αA- and αB crystallin peptides were added to the culture medium at a concentration of 50 μg/3.0 ml, followed by incubation of the lenses for 16 h. The medium was replaced with fresh medium containing 5 μM calcimycin, and the lenses were incubated for an additional 6 h. After this incubation period, the lenses were thoroughly washed with PBS, fixed in 1% buffered formalin overnight, and embedded in paraffin. Microtome sections (5 μm) were subsequently rehydrated and subjected to antigen retrieval via microwave irradiation in 10 mM citrate buffer (pH 6.0). Apoptosis was measured using the In situ Cell Death Detection Kit (Roche, Indianapolis, Ind.) according to the manufacturer's instructions. The sections were counterstained with DAPI to visualize nuclei.

[13] = target: the above four client proteins (citrate synthase, insulin, βL-crystallin, γ-crystallin); assay: cell-based or functional assay
[14] = multiple i.p. injections 10 μg/animal
[15] = single i.p. injection 2.5 μg/animal 6 h prior to selenite
[16] = single i.p. injection 10 μg/animal 6 h prior to selenite
[17] = 1 μg/ml peptide in BIOPORTER 4 h, 43° C. 1 h
[18] = 2 μg/ml peptide in BIOPORTER 4 h, 43° C. 1 h
[19] = 4 μg/ml peptide in BIOPORTER 4 h, 43° C. 1 h
[20] = multiple i.p. injections 5 μg/animal

Molecule | inhibition of protein aggregation in the lens center (H&E) [1] | inhibition of lens epithelial cell apoptosis (TUNEL) [2] | inhibition of caspase-9 activity [3] [%] | inhibition of caspase-3 activity [4] [%] | inhibition of cataract development [5, 14] | inhibition of cataract development [5, 15] | inhibition of cataract development [5, 16] | rate of apoptosis after peptide pretreatment [6] [%] | inhibition of apoptosis [7, 17] [%] | inhibition of apoptosis [7, 18] [%] | inhibition of apoptosis [7, 19] [%] | inhibition of cataract development [5, 20] | other results
73DRFSVNLDVKHFSPEELKVKV93 (listed as Homo sapiens) [αB-native peptide] | inhibited | inhibited apoptosis | 51 | 80 | inhibited cataract development | ineffective | strongly inhibited cataract development | 18 | 8 | 12 | 17 |  | 
69DKFVIFLDVKHFSPEDLTVK88 (listed as Homo sapiens) [αA-native peptide] | inhibited | inhibited apoptosis | 51 | 80 | entirely inhibited cataracts | ineffective |  | 22 | 12 | 14 | 17 | strongly inhibited cataracts | 
69DK (acetyl) FVIFLDVKHFSPEDLTVK88 (DK(Ac)FVIFLDVKHFSPEDLTVK; listed as Homo sapiens) [αA-acetyl peptide] | inhibited | inhibited apoptosis | 53 | 90 | entirely inhibited cataracts | ineffective | more effective than the native peptide | 25 |  |  |  | strongly inhibited cataracts | chaperone function compared with the native peptide ([8]; peptide:insulin 1:10 (w/w)): significantly better; inhibition of cataract development ([5]; multiple i.p. injections 2.5 μg/animal): partially inhibited cataract development; inhibition of cataract development ([5]; single i.p. injection 5 μg/animal 6 h prior to selenite): more effective than the native peptide; chaperone function compared with the native peptide [9]: significantly better; chaperone function compared with the native peptide ([10]; peptide:citrate synthase 1:2.5 (w/w)): significantly better; chaperone function compared with the native peptide [11]: not different; more effective than the native peptide in inhibiting apoptosis ([7]; at the 2 and 4 μg concentrations): at least 5%
DFVIDSPFKLVDLEKVHFTK (listed as Homo sapiens) [αA-scrambled peptide] |  |  |  |  | entirely ineffective |  |  |  |  |  |  |  | chaperone function ([8]; peptide:IN 1:5, two times higher concentration than native and acetyl peptides): did not function as a chaperone; protection from calcimycin-induced apoptosis (in words) [12]: did not protect the cells; chaperone function ([10]; peptide:CS 1:1.25, two times higher concentration than native and acetyl peptides): did not function as a chaperone; inhibition of apoptosis (in words) ([6]; 4 μg/ml): did not inhibit apoptosis; inhibition of apoptosis (in words) ([7]; 4 μg/ml, 43° C. 1 h): did not inhibit apoptosis
DRFSVNLDVKHFSPEELKVK(Ac)V [αB-crystallin acetyl peptide 73…(acetyl)V93] |  |  |  |  |  |  |  |  |  |  |  |  | chaperone function, against the native αB peptide (percent weaker) [13]: 10 to 30%
